What all share (assay): inhibition of tumour cell growth, NCI panel, 48 h
Assay [1] deals with CCRF-CEM leukemia.
For assay [2], the system named is COLO 205 colon.
Assay [3] relates to SR leukemia.
The subject of assay [4] is SK-MEL-5 melanoma.
The test system of assay [5] is SN12C renal.
Assay [6] has as its system SW-620 colon.
The subject of assay [7] is KM12 colon.
The test system of assay [8] is SK-OV-3 ovarian.
Assay [9] concerns NCI-H23 lung.
Assay [10] deals with LOX IMVI melanoma.

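Interpolation was linear, between the two tested concentrations surrounding the appropriate level; five concentrations were tested over 48 hours in 96-well plates. The concentration for 50% growth inhibition is given as GI50. TGI: concentration producing complete growth inhibition.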 Where only a bound is given, the exact number is not on record here.

In the case of `CSc1ccc(C(=O)C(=O)c2ccc(SC)s2)s1`, the TGI in assay [1], in [2], in assay [3], in [4], in [5] and in assay [6] was above 10 µM in each case. For the same molecule, the TGI in [7], in assay [8], in assay [9] and in [10] was above 10 µM throughout.

Regarding `CC(=O)N(Cc1ccccc1)c1ccccc1I(=O)=O`, the GI50 in [1] was 16.6 µM; in assay [2], 28.9 µM; in assay [3] it was 0.18 µM; in [4], 33.6 µM; in assay [5], above 100 µM; in assay [6], 29.4 µM. Moreover, the GI50 in assay [7] was 42 µM; in assay [8], 81.1 µM; in assay [9] it was 37.8 µM; in assay [10] it was 17.5 µM. Further, the TGI in assay [1] is 35.5 µM; in assay [2] it was 90.4 µM; in assay [3], 4.37 µM; in assay [4], above 100 µM; in assay [5], above 100 µM; in assay [6], 91.9 µM. In addition, the TGI was above 100 µM in assay [7], above 100 µM in assay [8], above 100 µM in assay [9] and 35.6 µM in assay [10].

As to `Cc1cc(Cl)ccc1Nc1nc(C(F)(F)F)ccc1C(=O)N1CCN(c2cccc(Cl)c2)CC1`, the GI50 is above 100 µM in assay [1]; above 100 µM in assay [2]; above 100 µM in assay [3]; 65.6 µM in assay [4]; above 100 µM in assay [5]; above 100 µM in assay [6]. For the same molecule, the GI50 in assay [7], in [8], in [9] and in assay [10] was above 100 µM throughout. For the same molecule, the TGI in assay [1], in assay [2], in assay [3], in assay [4], in assay [5] and in assay [6] was above 100 µM throughout. Further, the TGI in assay [7], in assay [8], in assay [9] and in [10] was above 100 µM throughout.

As to `C#CCN(Cc1ccc2nc(N)[nH]c(=O)c2c1)c1ccc(C(=O)NC(CCC(=O)O)C(=O)O)cc1` (stereo not given), the TGI in [1], in assay [2], in [3], in assay [4], in assay [5] and in [6] was above 100 µM in each case. Also, the TGI in assay [7], in assay [8], in [9] and in assay [10] was above 100 µM in each case.

For `COc1cc(NC(=O)Nc2cnc(Nc3ccc(N4CCOCC4)cc3)nc2Oc2cccc(OC)c2)cc(OC)c1`, the GI50 was above 50 µM in [1]; 2.71 µM in [3]; 1.13 µM in [4]; 1.3 µM in assay [5]; 2.99 µM in [6]; 2.19 µM in [7]. For the same molecule, the results for the GI50 in assay [8], in assay [9] and in assay [10] were 2.79 µM, 1.82 µM and 1.47 µM, respectively. The TGI in [1] is above 50 µM; in assay [3], above 50 µM; in assay [4] it was 2.65 µM; in assay [5], 3.71 µM; in [6], above 50 µM; in assay [7], 22.5 µM. The TGI in assay [8] was determined as 11.1 µM; in assay [9] it was 11.8 µM; in assay [10], 5.59 µM.

Regarding `CCCCCCCCCCCCOP(N)(=O)OCCCCCCCCCCCC`, the TGI in [1], in assay [2], in [3], in assay [5], in [6] and in [8] was above 100 µM each time. Besides, the TGI in assay [9] and in [10] was above 100 µM in each case.

Consider `COC1(OC)c2no[n+]([O-])c2C(OC)(OC)c2c1no[n+]2[O-]`, for which the TGI was 60.4 µM in assay [1]; 28.5 µM in [2]; 31.6 µM in assay [3]; 28.6 µM in assay [4]; 54 µM in assay [5]; 35.8 µM in [6]. The results for the TGI in assay [7], in [9] and in assay [10] were 24.2 µM, 28.2 µM and 33.5 µM, respectively.

For `N#CC1C=Cc2ccccc2N1C(=O)Oc1ccccc1` (stereo not given), the TGI in assay [1] is 81.6 µM; in assay [2], above 100 µM; in assay [3], above 100 µM; in assay [4] it was above 100 µM; in [5], above 100 µM; in assay [6] it was above 100 µM. Besides, the TGI in [7], in assay [9] and in assay [10] was above 100 µM each time.

For the molecule `CCC1CNC(=O)CC1CC(=O)OC` (stereo not given), the TGI in [3], in assay [4], in [5], in assay [6], in assay [7] and in assay [8] was above 100 µM throughout. Moreover, the TGI in assay [9] and in assay [10] was above 100 µM throughout.

Regarding `CC1COCC(C)N1C1=C(Cl)C(=O)c2ccccc2C1=O` (stereo not given), the GI50 was 13.3 µM in [2]; 2.28 µM in assay [3]; 6.83 µM in assay [4]; 11.3 µM in assay [5]; 1.74 µM in assay [6]; 12.4 µM in assay [7]. Further, the GI50 in [8] is 17.9 µM; in [9], 11.2 µM; in assay [10], 1.41 µM. In addition, the TGI amounted to 27 µM in assay [2]; 5.97 µM in [3]; 19.9 µM in [4]; 23.5 µM in assay [5]; 3.24 µM in assay [6]; 25.4 µM in assay [7]. Moreover, the results for the TGI in assay [8], in assay [9] and in [10] were 31.8 µM, 24.7 µM and 2.77 µM, respectively.
